Reference: publication PMC10094048, “Synthesis and Anticancer Evaluation of 4-Anilinoquinolinylchalcone Derivatives” (International Journal of Molecular Sciences, 2023)
Where a name gives a salt, the structure may show the parent alone. Read-outs that look alike come from different tables or passages of the source. One block for each molecule: values may come before it.

Legend:
[1] = system: rheumatoid arthritis fibroblast-like synoviocytes; details: cited from earlier work
[2] = system: human retinoblastoma Y79 cell; parameters: method as in PMID 26564153; details: 48 h XTT assay; read-out: IC50 Y79 cell proliferation; cited from earlier work
[3] = cited from earlier work
retinoblastoma cells = system: retinoblastoma cells; parameters: method as in PMID 26564153; details: cited from earlier work
MRC-5 = assay: XTT antiproliferative assay, normal lung cells MRC-5; assay type: cell-based; details: Homo sapiens, MRC5, 72 h, mean ± SD
Method: (§1) All the synthesized 4-anilinoquinolinylchalcone derivatives were evaluated in vitro against two cancer cells (Huh-7 and MDA-MB-231) and a non-cancer normal fibroblast lung cell line (MRC-5) using an XTT (sodium 3′-[1-(phenylamino-carbonyl)-3,4-tetrazolium}-bis(4-methoxy-6-nitro)benzene sulfonic acid hydrate) assay. The concentration that inhibited the growth of 50% of cells (IC50) was determined from the linear portion of the curve by calculating the concentration of the tested agent that reduced absorbance in treated cells, compared to control cells, by 50%. The IC50 results of these 4-anilinoquinolinylchalcone derivatives are summarized (Table 1). […] Thus, 4a was selected as a lead compound for further mechanism studies.
(§2) Cancer cells (Huh-7, MDA-MB-231) and normal lung cells (MRC-5) were purchased from Bioresources Collection and Research Center, Taiwan. Cells were maintained in the same standard medium, grown as a monolayer in DMEM (Gibco, Miami, FL, USA), and supplemented with 10% fetal bovine serum (FBS) and antibiotics, i.e., 100 IU/mL penicillin, 0.1 mg/mL streptomycin and 0.25 μg/mL amphotericin. The culture was maintained at 37 °C with 5% CO2 in a humidified atmosphere. Cells (5 × 10^3 cells/well) were treated with tested compounds for 72 h in the medium containing 10% FBS. Cell viability was quantitated with the use of sodium 3′-[1-(phenylamino-carbonyl)-3,4-tetrazolium}-bis(4-methoxy-6-nitro)benzene sulfonic acid hydrate (XTT) colorimetric assay (Biological Industries, Beit-Haemek, Israel). XTT labeling reagent (1 mg/mL) was mixed with electron-coupling reagent, following the manufacturer’s instructions, and 50 μL of the mixture was added directly to the cells. The plates were further incubated at 37 °C for 4 h. Color was measured spectrophotometrically in a microtiter plate reader at 492 nm and used as a relative measurement of viable cell numbers. After drug treatment, the viable cell number was compared to the solvent and untreated control cell number. This information was used to determine the percent of control growth as (Abtreated/Abcontrol) × 100, where Ab represents the mean absorbance (n = 3). The concentration that killed 50% of cells (IC50) was determined from the linear portion of the curve by calculating the concentration of the agent that reduced the absorbance in treated cells, compared to control cells, by 50%.

MDA-MB-231 [4] = system: MDA-MB-231; parameters: method as in PMID 23237975; details: value marked with footnote c; cited from earlier work
H1299 = system: H1299; parameters: method as in PMID 23237975; details: read-out: IC50 against the growth of H1299; cited from earlier work
SKBR-3 = system: SKBR-3; parameters: method as in PMID 23237975; details: read-out: IC50 against the growth of SKBR-3; cited from earlier work
Huh-7 [5] = assay: XTT antiproliferative assay, Huh-7; assay type: cell-based; details: Homo sapiens, 72 h, mean ± SD
Method: as §1, §2

MDA-MB-231 [6] = assay: XTT antiproliferative assay, MDA-MB-231; assay type: cell-based; details: Homo sapiens, 72 h, mean ± SD
Method: as §1, §2

[7] = system: breast cancer MDA-MB-231 cells; assay: Cellular ATP assay (ATPlite luminescence); assay type: cell-based, human; details: MDA-MB-231, 24 h
Method: ATP levels are another cell viability indicator [31, 32, 33]. To further confirm the inhibition of the cell proliferative ability of compound 4a, the cellular ATP levels of breast cancer MDA-MB-231 cells were assessed (Figure 2).
Cellular ATP was determined using the ATPlite luminescence reagent (PerkinElmer Life Sciences, Boston, MA, USA). According to the user instruction, the cell lysate of treated cells was reacted with ATPlite substrate for 5 min in the dark. Finally, the luminescence was detected by a luminometer (Berthold Technologies GmbH & Co., Bad Wildbad, Germany).

[8] = system: breast cancer MDA-MB-231 cells; assay: Annexin V/7AAD apoptosis assay (flow cytometry); assay type: cell-based, human; details: MDA-MB-231, 24 h, 5 and 10 μM versus control and 1 μM
Method: To examine the apoptosis-inducing ability of compound 4a, the annexin V/7-aminoactinomycin D (7-AAD) change in breast cancer MDA-MB-231 cells was assessed. […] Compound 4a, consisting of both versatile quinoline and chalcone moieties, was also active in inducing cancer cell apoptosis.
Annexin V/7AAD flow cytometry was a common method for detecting apoptosis. The commercial product containing annexin V-FITC (1:1000) and 7AAD (1 μg/mL) (Strong Biotech; Taipei, Taiwan) was applied to stain drug-treated cells for 1 h. Finally, these stained cells were conducted with flow cytometry (Guava easyCyte, Luminex, TX, USA).

[9] = system: breast cancer MDA-MB-231 cells; assay: ROS assay (H2DCFDA flow cytometry); assay type: cell-based, human; details: MDA-MB-231, 24 h
Method: To evaluate the ROS-inducing ability of compound 4a, the flow cytometry-based ROS detection of breast cancer MDA-MB-231 cells was conducted.
The oxidative stress indicator, such as ROS, was selected to assess the impact of drug treatment on the change in oxidative stress. According to the manufacturer’s instructions, the ROS reacting probe 2′,7′-dichlorodihydrofluorescein diacetate (H2DCFDA) (Sigma-Aldrich) was applied to drug-treated cells. Finally, these stained cells were conducted with flow cytometry.

[10] = system: breast cancer MDA-MB-231 cells; assay: Caspase 3/7 luminescence assay; assay type: cell-based, human; details: for caspase 3/7 activation: 24 h
Method: Using the caspase 3/7 luminescence assay, the modulating ability of breast cancer MDA-MB-231 cells on caspase 3/7 signaling with compound 4a was evaluated. […] Moreover, this caspase 3/7 activation with compound 4a was suppressed by NAC pretreatment.
Caspase 3/7 activation is the essential process for apoptosis, which was measured by the caspase-Glo® 3/7 assay (Promega; Madison, WI, USA), and its signal was read and recorded by a Luminometer (Berthold Technologies GmbH & Co., Bad Wildbad, Germany). The role of the induction of ROS affecting caspase 3/7 activity in drug-treated cells was evaluated by the 1 h pretreatment of 10 mM NAC [45, 49, 50].

[11] = system: non-small-cell lung A549 cancer cells; details: 48 h trypan blue exclusion assay; read-out: IC50 antiproliferation A549; cited from earlier work
MDA-MB-231 cell line = system: MDA-MB-231 cell line; parameters: method as in PMID 31234033; details: after 24 h of treatment; read-out: IC50 cytotoxicity on MDA-MB-231; cited from earlier work
Huh-7 [12] = system: Huh-7; parameters: method as in PMID 31234033; details: Chen et al.; cited from earlier work
HepG2 = system: HepG2; parameters: method as in PMID 31234033; details: Chen et al.; cited from earlier work
HA22T = system: HA22T; parameters: method as in PMID 31234033; details: Chen et al.; cited from earlier work

SMILES: COc1cc(/C=C/C(=O)c2ccc3ccccc3c2O)cc(OC)c1 [(E)-3-(3,5-dimethoxyphenyl)-1-(1-hydroxynaphthalen-2-yl) prop-2-en-1-one]
ROS burst [1]: evoke ROS burst

SMILES: O=C1c2cc(OCCN3CCCC3)ccc2-c2c(-c3ccc(OCCN4CCCC4)cc3)nc3ccc(OCCN4CCCC4)cc3c21 [BPIQ, 2,9-bis [2-(pyrrolidin-1-yl)ethoxy]-6-{4-[2-(pyrrolidin-1-yl)ethoxy]phenyl}-11H-indeno[1,2-c]quinolin-11-one]
IC50 [2]: 13.6 µM
apoptosis induction [3]: apoptosis induction
ROS production (retinoblastoma cells): induces ROS production

SMILES: COc1ccc(-c2cc3ccccc3nc2/C=C/C(=O)c2ccccc2)cc1 [Compound 1, (E)-3-[3-(4-methoxyphenyl)quinolin-2-yl]-1-phenylprop-2-en-1-one]
IC50 (MRC-5): 0.66 ± 0.06 µM
IC50 (MDA-MB-231 [4]): 0.86 ± 0.07 µM
IC50 (H1299): 1.41 µM
IC50 (SKBR-3): 0.7 µM

SMILES: CN(C)CCCOc1ccc(-c2nc3ccc(F)cc3c3c2-c2ccc(OCCCN(C)C)cc2C3=O)cc1 [DFIQ]
IC50 [11]: 3.53 µM

SMILES: CS(=O)(=O)CCNCc1ccc(-c2ccc3ncnc(Nc4ccc(OCc5cccc(F)c5)c(Cl)c4)c3c2)o1 [Lapatinib]
IC50 (Huh-7 [5]): 12.5 ± 0.28 µM
IC50 (MDA-MB-231 [6]): 12.8 ± 0.91 µM
IC50 (MRC-5): > 20 µM
IC50 (MDA-MB-231 cell line): 32.5 µM
IC50 (Huh-7 [12]): 2.11 µM
IC50 (HepG2): 3.42 µM
IC50 (HA22T): 4.85 µM

Continued, in another order:

melting point: 165 to 166 °C
SMILES: COc1cccc(COc2ccc(Nc3cc(/C=C/C(=O)c4ccc(F)cc4)nc4ccccc34)cc2)c1 (as salt: salt) [Compound 5f, (E)-1-(4-Fluorophenyl)-3-{4-{{4-[(3-methoxybenzyl)oxy]phenyl}amino}quinolin-2-yl}prop-2-en-1-one]

melting point: 179 to 180 °C
SMILES: O=C(/C=C/c1cc(Nc2ccc(OCc3ccc(Cl)cc3)cc2)c2ccccc2n1)c1ccc(F)cc1 (as salt: salt) [Compound 5g, (E)-3-{4-{{4-[(4-Chlorobenzyl)oxy]phenyl}amino}quinolin-2-yl}-1-(4-fluorophenyl)prop-2-en-1-one]

melting point: 254 to 255 °C
SMILES: O=C(/C=C/c1cc(Nc2ccc(OCc3ccc(F)cc3)cc2)c2ccccc2n1)c1ccc(F)cc1 (as salt: salt) [Compound 5h, (E)-3-{4-{{4-[(4-Fluorobenzyl)oxy]phenyl}amino}quinolin-2-yl}-1-(4-fluorophenyl)prop-2-en-1-one]

IC50 (Huh-7 [5]): 1.47 ± 0.07 µM
IC50 (MDA-MB-231 [6]): 0.11 ± 0.07 µM
SMILES: COc1ccc(C(=O)/C=C/c2cc(Nc3ccc(OCc4ccccc4)cc3)c3ccccc3n2)cc1 [Compound 4a, (E)-3-{4-{[4-(Benzyloxy)phenyl]amino}quinolin-2-yl}-1-(4-methoxyphenyl)prop-2-en-1-one]
IC50 (MRC-5): > 20 µM
cellular ATP levels [7]: dose-responsive downregulation of ATP
annexin V/7AAD apoptosis [8]: more significant apoptosis
ROS induction [9]: dose-responsive induction of ROS
caspase 3/7 activation ([10]; MDA-MB-231, 1 μM): inactive
caspase 3/7 activation ([10]; MDA-MB-231, 5 and 10 μM): significant caspase 3/7 activation
caspase 3/7 activation after NAC pretreatment ([10]; MDA-MB-231, 1 h pretreatment of 10 mM NAC, then 4a 24 h): suppressed
